Consider 7 molecules from patent publication EP1053750A1, “Use of proteasome-inhibitor for the induction of programmed cell death (apoptosis)” (Max-Planck-Gesellschaft zur Förderung der Wissenschaften …, priority 1999, dated 2000).

For assay [1], the system named is HUE cells. As to the kind of experiment: DNA fragmentation assay. Format: cell-based, human. The settings on record: 250 µM caspase inhibitor 1 h before 10 µM PSI, 18 h. How it is done: • a. Analysis of PSI-induced DNA fragmentation by agarose gel electrophoresis. […] Neither caspase inhibitor (Ac-YVAD-CHO 250 µM, lane 4; Ac-DEVD-CHO 250 µM, lane 5) nor DMSO (lane 6) induced the characteristic pattern of DNA fragmentation. M1 and M2: DNA size markers (kb). • b. Immunoblot analysis of HUE cell lysates after incubation with PSI. […] Equal loading was controlled by using an antibody directed against GAPDH enzyme.
HUE cells which had been plated at 20000 cells/cm^2 24 hours before the assay, were treated with 250 µM of the caspase inhibitors Ac-YVAD-CHO or Ac-DEVO-CHO (Peptide Institute, Osaka, Japan) or the equivalent volume of dimethylsulfoxide (DMSO) for 1 h prior to additon of the proteasomal inhibitors. Incubation of the cells was continued for a further 18 h and the extent of DNA fragmentation was analyzed as previously described with some minor modifications (Hockenberry et al., Nature 348 (1990), 334 - 336). Briefly, both the floating cells and the adherent cells which were detached by trypsinization, were lysed in a solution containing 0.5% Triton X100, 10 mM EDTA and 10 mM Tris-HCL pH 7.5 for 30 min on ice. To separate the intact chromatin from the oligonucleosomal fragments, the lysate was centrifuged at 13000 g for 10 min at 4°C and the resulting supernatant was sequentially extracted with phenol followed by phenol/chloroform/iso-amylalcohol (25:24:1; v/v/v). Low molecular weight DNA was precipitated by the addition of 0.5 vol 7 M ammonium acetate and 2.5 vol ice-cold ethanol. The precipitate was washed in 75% ethanol, dissolved in TE-buffer, containing RNase A (20 µg/ml; Boehringer Mannheim), incubated for 30 min at 37°C and subjected to electrophoresis on 1.5% agarose gels.

Assay [2] addresses T1, chymotrypic activity of the proteasome (Bos taurus, UniProt Q32KL2).
T1 construct: endogenous in cells; host or cells: primary bovine aortic endothelial cells (BAE), total lysate after 15-16 h treatment of the cells
T1 sequence (Q32KL2 60-263): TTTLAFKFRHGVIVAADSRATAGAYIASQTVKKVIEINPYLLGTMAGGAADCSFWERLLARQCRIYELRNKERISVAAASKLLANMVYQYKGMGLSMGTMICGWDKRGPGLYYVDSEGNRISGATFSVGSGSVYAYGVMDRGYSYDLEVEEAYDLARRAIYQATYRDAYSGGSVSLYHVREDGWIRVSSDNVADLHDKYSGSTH
As to the kind of experiment: Proteasomal activity in lysates of treated BAE cells, substrate Suc-LLVY-AMC. Format: cell-based, bovine. The settings on record: total cell lysates after 15 h incubation of BAECs with 50 µM inhibitor. How it is done:
(§1) Lysates prepared from BAE cells incubated for 15 hours with 50 µM of the indicated inhibitors were assayed for their ability to suppress proteasomal function by using Suc-LLVY-AMC as substrate for the chymotryptic activity (a) and Z-LLE-AMC as substrate for the post acidic residue cleaving activity (b). Activities are expressed as the relative fluorescence measured after 45 min of incubation with the substrates and reflect the mean of two independent experiments each performed in duplicate.
(§2) DMSO at a final concentration of 0.1% served as a vehicle-only control. Floating and adherent cells were harvested, lysed by sonication in ice-cold solution of 20 mM Tris-HCI pH 7.5, containing 20% glycerol, centrifuged in a benchtop centrifuge (10 min, 2000 g). […] A total of 15 µg of protein in a volume of 200 µl lysis buffer supplemented with 5 mM CaCl2 was assayed for chymotryptic and peptidyl-glutamyl-hydrolyzing activity in the presence of 10 µM Suc-Leu-Leu-Val-Tyr-AMC (Bachem, Heidelberg, Germany) and 10 µM Z-Leu-Leu-Glu-AMC (Peptide Institute, Osaka, Japan) respectively.

The subject of assay [3] is subconfluent primary BAE cells. As to the kind of experiment: Apoptotic morphology (phase contrast, Hoechst 33342), BAE cells. The class given is cell-based, bovine. The settings on record: for morphological changes associated with programmed cell death: subconfluent BAE cells, 50 µM for 15 - 24 h, or 10 µM after 48 hours.
The target in a further assay is calpain. The settings on record: cited from earlier work.
Another assay deals with cathepsin B (Homo sapiens, UniProt P07858). The settings on record: cited from earlier work.
A further assay has as its system BAE cells. The experiment in a line: Viability assay (MIT assay), BAE cells. Format: cell-based, bovine. The settings on record: for EC50: Bos taurus.
In assay [4] the test system is HUE cells. As to the kind of experiment: Viability assay (MIT assay), HUE cells. Format: cell-based, human. The settings on record: for EC50: Homo sapiens, 48 h, 48 h incubation.
The test system of a further assay is MDCK epithelial cells. The experiment in a line: Viability assay (MIT assay), MDCK cells. Format: cell-based, canine. The settings on record: for EC50: Canis lupus familiaris, 48 h, 48 h incubation. How it is done: The indicated values are expressed as the percentage of absorbance at 570 nm relative to the absorbance obtained by DMSO treated (control) cells.
Madin Darby canine kidney epithelial cells (MDCK; ATCC CLL-34) were grown in Dulbecco's Modified Eagle's Medium (DMEM) containing 10% FCS, penicillin and streptomycin.
Briefly, the cells were plated either at 3000 cells/well (low density) or 30000 cells/well (high density) onto 96 well plates and grown over night. […] The formazan cystals generated were subsequently dissolved in DMSO and absorption measured at 570 - 650 nm.

The target in assay [5] is T2, peptidyl-glutamyl hydrolyzing activity of the proteasome (Bos taurus, UniProt Q3MHN0).
T2 construct: endogenous in cells; host or cells: primary bovine aortic endothelial cells (BAE), total lysate after 15-16 h treatment of the cells
T2 sequence (Q3MHN0 1-239): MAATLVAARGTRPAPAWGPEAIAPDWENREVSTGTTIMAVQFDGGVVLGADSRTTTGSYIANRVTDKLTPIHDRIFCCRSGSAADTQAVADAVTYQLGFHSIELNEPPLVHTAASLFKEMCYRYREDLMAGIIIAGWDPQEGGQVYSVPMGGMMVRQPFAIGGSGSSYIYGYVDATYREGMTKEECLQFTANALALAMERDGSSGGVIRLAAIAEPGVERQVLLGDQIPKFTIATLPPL
As to the kind of experiment: Proteasomal activity in lysates of treated BAE cells, substrate Z-LLE-AMC. The class given is cell-based, bovine. The settings on record: total cell lysates after 15 h incubation of BAECs with 50 µM inhibitor. How it is done: as §1, §2

Assay [6] has as its system chorioallantoic membrane (CAM). As to the kind of experiment: Chorioallantoic membrane (CAM) assay. Format: in vivo, chick embryo. Here is the method: All experiments with chick embryos were performed in ovo. After aspiration of 2 ml of eggwhite from the pointed side of the egg, a window was cut into the eggshell on embryonic day 3 or 4 (E3, E4). The eggs were resealed with tape and further incubated until E9. […] Approximately 1 cm^2-pieces of the CAM were then cut out, washed in PBS and fixed in Carnoy's solution. After dehydration and embedding in paraffin, 8 µm sections were cut and stained with an anti-BrdU mouse monoclonal antibody (Boehringer Mannheim, Germany) according to the manufacturer's instructions. Counterstaining of the sections was performed with Gill's hematoxylin (Serva, Heidelberg, Germany). Sections were mounted using Aquamount (Merck, Darmstadt, Germany) and photos were taken with a Zeiss Axiophot microscope. […] Control pellets were prepared with an equal amount of Leupeptin or with DMSO as vehicle, respectively. To aid in the visualization of the vascular system, embryos and CAMs were then injected using pulled glass capillaries with 10% Luconyl Blue (BASF, Ludwigshafen, Germany) in PBS, and photographs were taken using a stereomicroscope with camera adapter.
In eight eggs the windows of the egg shells were enlarged under an operation microscope. After a peripheral incision in the CAM was made, the main artery was incised with a pair of ocular scissors, and a glass capillary (World Precision Instruments, Inc. Germany) pulled to the adequate diameter, was inserted and sealed with a drop of cyanoacrylate (Loctite®). Efflux was enabled by making another incision into a main draining vessel. The vascular system was flushed with up to 5 ml of prewarmed (37 -39°C) physiological saline (0.9% NaCI) under mechanically controlled pressure. […] After complete polymerization of the casting solution, the membranes were dissected and macerated in a solution of 5% potassium hydroxide (Fluka, Neu-Ulm, Germany) at 40°C for 1 - 2 days. The resulting corrosion casts of all specimens were freeze dried, mounted and sputter coated. Examination of the microvascular corrosion casts were carried out with a Stereoscan Mk-250 scanning electron microscope (Cambridge, England). Alternatively, in situ fixed CAM segments were cut out, processed for semi-thin sectioning and stained with methylene blue and Azur II. Selected specimens were trimmed for ultrathin sectioning, and counterstained with uranyl acetate and lead citrate.

[7] abbreviates: EC50 confluent versus subconfluent, 2880 min.
[8] abbreviates: sub (low density, subconfluent).

Square brackets hold non-standard residues; d marks the D form. Peptide text beside a SMILES is read from it. * marks the point of attachment. Nva = CCC[C@H](N)C(=O)O; Cbz = O=C(OCc1ccccc1)*

Regarding `CC(=O)N[C@@H](CC(=O)O)C(=O)N[C@@H](CCC(=O)O)C(=O)N[C@H](C(=O)N[C@H](C=O)CC(=O)O)C(C)C` [Ac-DEVD-CHO], in the assay with HUE cells [1], the “blocking of PSI-induced morphological changes and DNA fragmentation” value is reported as “blocked”.

For the molecule `CC(=O)N[C@@H](Cc1ccc(O)cc1)C(=O)N[C@H](C(=O)N[C@@H](C)C(=O)N[C@H](C=O)CC(=O)O)C(C)C` [Ac-YVAD-CHO], the “blocking of PSI-induced morphological changes and DNA fragmentation” value in the assay on HUE cells [1] is “unable to inhibit the action of PSI”.

On to `CC(C)C[C@H](NC(=O)[C@H]1O[C@@H]1C(=O)O)C(=O)NCCCCN=C(N)N` [E64], for which the “cleavage of Suc-Leu-Leu-Val-Tyr-AMC” value in assay [2] is recorded as “not”.

As to `CC(C)C[C@@H](C=O)NC(=O)[C@H](CC(C)C)NC(=O)[C@H](CC(C)C)NC(=O)OCc1ccccc1` [LLL] (Cbz-Leu-Leu-Leu-aldehyde), in [3], the “morphological changes associated with programmed cell death” value is listed as “had the same effect”.

Take `CSCC[C@@H](C=O)NC(=O)[C@H](CC(C)C)NC(=O)[C@H](CC(C)C)NC(C)=O` [LLnM] (Ac-Leu-Leu-Met-aldehyde): the “cleavage of Suc-Leu-Leu-Val-Tyr-AMC” value in assay [2] was “not”. In assay [3] (cultured BAE cells), the “changes in cellular morphology or viability” value is “did not induce any changes”. Also, the Ki was 0.009 µM on calpain and 0.012 µM at cathepsin B.

As to `CCC[C@@H](C=O)NC(=O)[C@H](CC(C)C)NC(=O)[C@H](CC(C)C)NC(=O)OCc1ccccc1` [LLnV] (Cbz-Leu-Leu-[Nva]-aldehyde), the x difference is listed as 6.8 fold with BAE cells (BAE, EC50 confluent versus subconfluent, 2880 min); 8.1 fold in the assay with HUE cells [4] (setting [7]); 15.1 fold with MDCK epithelial cells (setting [7]). The EC50 with BAE cells (96 h, BAE cells seeded at high density, grown to confluency for 4 days) was determined as 2.72 µM; in the assay with BAE cells (BAE, con (grown to confluency for 4 days), 48 h incubation), 2.72 µM; in the assay with BAE cells (BAE, sub (low density, subconfluent), 48 h incubation, viability reduced to 50% of DMSO control), 0.402 µM; in the assay on HUE cells [4] (con (grown to confluency)), 2.5 µM; with HUE cells [4] (setting [8]) it was 0.31 µM; in the assay on MDCK epithelial cells (con (confluent)) it was 2.95 µM. In the assay on MDCK epithelial cells (setting [8]), a half-maximal effect (EC50) was put at 0.196 µM. In addition, the “cleavage of Suc-Leu-Leu-Val-Tyr-AMC” value in assay [2] is “clearly reduced”. In assay [5], the “total cellular peptidyl-glutamyl hydrolyzing activity (Z-Leu-Leu-Glu-AMC)” value is “similarly reduced”. In addition, the “morphological changes associated with programmed cell death” value in [3] is listed as “had the same effect”.

For `CC(=O)N[C@@H](CC(C)C)C(=O)N[C@@H](CC(C)C)C(=O)N[C@H](C=O)CCCNC(=N)N` [Leupeptin], the “%CAMs with non-perfused areas” value in assay [6] (3.1 µg/disc, methylcellulose disc on CAM for 48 h, Luconyl Blue injection, positive/total CAMs in parenthesis) was 0 (0/26) %. In addition, the “vascular patterning or perfusion efficacy in the CAM” value in [6] (same amount as PSI (3.1 µg/disc)) was “did not elicit any significant changes”. Besides, the “cleavage of Suc-Leu-Leu-Val-Tyr-AMC” value in [2] is recorded as “not”.
